The text below walks through data of patent US11629335B2, “Methods of improving vector transduction efficiency into T lymphocytes” (CELGENE CORPORATION, priority 2014, dated 2023).

For series [1], the system named is primary human T lymphocytes. Description: Lentiviral transduction efficiency of primary human T lymphocytes with CAR vector JL28.2, FACS for VEGFR2+ cells. The format is cell-based. Conditions: for transduced cells VEGFR2+: in presence of DD, MOI 1.8; for VEGFR2+ cells: 6 μM BX795 before and concurrently, nine hours total (Pre-treated+Concurrent); for VEGFR2 expression as compared to DD Only Control: day 3 and day 8. The procedure: Lentivirus encoding the vector JL28.2 (VEGFR2-CD28TM-CD28IC-P2A-GFP), which encodes a chimeric antigen receptor composed of VEGFR2 and GFP protein, was added to the activated T lymphocyte culture at a multiplicity of infection (MOI) of 1.8. Fluorescence-activated cell sorting (FACS) was used to determine the proportion of T lymphocytes expressing VEGFR2 as a marker for successfully transduced cells.
Transduced lymphocytes were then analyzed by FACS to determine the proportion of successfully transduced cells.
T lymphocytes were cultured for eight days after transduction, and VEGFR2 expression was monitored at days 3 and 8 post-transduction.
Cells were analyzed by FACS for viability.
Primary human T lymphocytes were cultured as in Section 6.3.1 and analyzed by FACS for expression of VEGFR2.

In series [2] the test system is primary human T lymphocytes. As to the kind of experiment: Viability of primary human T lymphocytes after lentiviral transduction, by FACS. The following applies: absence of 2-AP, JL28.2 MOI 3, 50 U/ml IL-2; without DD or PS 84%.
Description: Primary human T lymphocytes were cultured in RPMI-1640 media supplemented with 10% (v/v) fetal bovine serum (FBS), and activated with anti-CD3/CD28 Dynabeads® at a Dynabead:T lymphocyte ratio of 3:1 for 24 hours. 2-Aminopurine (2-AP) was added to cultures and incubated for 90 minutes at 37 C. DEAE-dextran (DD) or protamine sulfate (PS) were added to the cultures in the presence of 50 U/ml IL-2 and JL28.2 lentiviral vector at an MOI of 3. Cells were analyzed by FACS for viability.

For the compound `Nc1ncc2[nH]cnc2n1` [2-AP, 2-Aminopurine], the “transduction efficiency as compared to cells not exposed to 2-AP (Control)” value in series [1] (2-AP 2.5 mM, 5 mM or 10 mM, pretreated 90 minutes, then 5 hours with lentivirus, in presence of DD or PS) is on record as “increased transduction efficiency”.
As for `O=C(NCCCNc1nc(Nc2cccc(NC(=O)N3CCCC3)c2)ncc1I)c1cccs1` [BX795], the “transduced cells VEGFR2+” value is listed as 7.63% in series [1] (1 μM BX795 added concurrently with lentivirus for six hours) and 10.5% in series [1] (10 μM BX795 added concurrently with lentivirus for six hours). Also, the “VEGFR2+ cells” value in series [1] (day 3 post-transduction) is listed as 18.4%; in series [1] (day 8 post-transduction), 10.6%. For the same compound, the “VEGFR2 expression level relative to DD Only cultures” value in series [1] (6 μM BX795 both before and during lentiviral transduction) is recorded as “roughly twice as high”. Moreover, the entries for the “VEGFR2 expression as compared to DD Only Control” value in series [1] (6 μM BX795 concurrently with lentiviral transduction for six hours (Concurrent)) and in series [1] (6 μM BX795 for three hours before lentiviral transduction (Pre-treated)) were “no improvement” and “increase”, respectively.
In the case of protamine sulfate [PS], the “cells VEGFR2+” value in series [1] (transformation reagent alone, no 2-AP, JL28.2 MOI 3, without DD or PS 4.49%) turned out to be 0.565%. The “viable cells after lentiviral transduction” value in series [2] was determined as 84.9%.
